Measurements: US20110281802A1, “COMPOSITION FOR TREATMENT AND PREVENTION OF HAIR LOSS AND PREMATURE GRAYING OF HAIR” (Immudiagnostik AG, priority 2007, published 2011)

Columns and labels:
Type in all cases: cell-based
[1] = test system: human hair follicles; test: Hair cycle staging of cultured hair follicles (assays #1, #2, #3)
Experimental: Photodocuments from the Fontana Masson staining were used for hair follicle staging according to previously well-defined morphological criteria (Stenn K S et al, Controls of Hair Follicle Cycling; Physiol Rev 2001, 81:449-494, Müller-Röver S et al, A Comprehensive Guide for the Accurate Classification of Murine Hair Follicles in Distinct Hair Cycle Stages; J Invest Dermatol 2001, 117:3-15). The percentage of hair follicles in anagen, early, mid and late catagen was determined.
Photodocuments from the Fontana Masson staining were used for hair follicle staging according to previously well-defined morphological criteria (Stenn K S et al, Controls of Hair Follicle Cycling; Physiol Rev 2001, 81:449-494, Müller-Röver S et al, A Comprehensive Guide for the Accurate Classification of Murine Hair Follicles in Distinct Hair Cycle Stages; J Invest Dermatol 2001, 117:3-15). The percentage of hair follicles in anagen, early, mid and late catagen was determined in the different assays.

[2] = test system: human anagen VI hair follicles; test: Melanogenesis, Fontana Masson staining measured by Image J, assay #1; settings: for Mean relative darkening of the groups (measured by image J), Mean: 9 days, dark=small index number, light=high index number
Experimental: (§1) Assay #1 Culture HF429: Hair follicles were grown in the wells of a microtiter plate (3 follicles per well) and treated for 9 days with culture medium and test substance as indicated in FIG. 1. Thereafter, elongation, melanogenesis and hair cycle stage were determined.
Fontana Masson staining was performed at the end of the culture period and photos taken of snap frozen sections. The photos were analysed (Image J, public domain, developed at the National Institutes of Health, USA) by measuring the density of two squares, consisting of 150×150 dots, placed over the darkest areas on both sides of the dermal papilla. For Fontana-Masson staining, fixed sections were treated in darkness for 40 minutes with a solution containing 10% silver nitrate (Merck & Co., Inc., Whitehouse Station, N.J., USA; CatNo 1.01512.0100), following by a development in solution containing 5% sodium thiosulphate (Merck & Co., Inc.; CatNo 1.06512.2500) for 1 minute and multiple washings in distilled water for 3 minutes. Counterstaining with 0.5% Neutralrot (Chroma Muenster, Germany, CatNo 2E038). Then dehydration in xylol and covering with Eukitt (O. Kindler GmbH, Freiburg, Germany; CatNo E115).
(§2) All data were analysed by two-tailed unpaired t-test (SPSS analysis software SPSS Inc., Chicago, USA). For determination of elongation, two outliers at top and bottom end of value range were eliminated; with the measurement of melanogenesis one outlier at both, top and bottom range, was eliminated. Results are given as mean value and standard error of measurement (SEM).
Micro-dissected anagen VI hair follicles were treated as above described. At the end of the culture period Fontana Masson staining was performed and photos were taken of the snap frozen sections. The pictures were analysed by measuring the darkness (brightness) of two squares, consisting of 150×150 dots, placed over the darkest areas on both sides of the dermal papilla (dark=small index number, light=high index number). The shading of the different groups was compared to each other and the results were analysed using Student's t-test. The results are shown below in Table 5 and FIG. 7.

[3] = test system: human anagen VI hair follicles; test: Hair shaft elongation of organ-cultured hair follicles, assay #1 (culture HF 429); settings: for Hair growth compared with control (in words): p<0.05
Experimental: (§3) Human anagen VI hair follicles were isolated from scalp skin obtained from three different individuals undergoing routine face-lift surgery. All experiments were performed according to Helsinki guidelines.
(§4) Hair follicles were isolated as described (Philpott MP et al, Human hair growth in vitro; J Cell Science 1990, 97(Pt 3):463-71). Isolated HFs were maintained in supplemented, serum-free Williams E medium (Biochrom, Cambridge, UK) supplemented with 2 mMol/L L-glutamine (Invitrogen, Paisley, UK), 10 ng/mL hydrocortisone (Sigma-Aldrich, Taufkirchen, Germany), 10 μg/mL insulin (Sigma-Aldrich), and 1% antibiotic/antimycotic mixture (Gibco, Karlsruhe, Germany). Hair follicles were placed in a 24-well plate with 500 μL medium (day 0) and incubated in a CO2-incubator (5% CO2, 37° C.) over night without any treatment. The next day (day 1) medium was exchanged and test substance was added to each well (5 μL of stock solution was added to 495 μL culture medium). The medium or medium with test substance was changed every 48 hours.
as §1
(§5) Hair shaft length measurements were performed every second day on individual hair follicles using a binocular microscope with an eyepiece measuring reticule. The length of the follicle was defined as the distance between the base of the bulb and the cut end of the hair fibre (Philpott MP et al, Human hair growth in vitro; J Cell Science 1990, 97(Pt 3):463-71).
as §2

[4] = test system: human anagen VI hair follicles; test: Hair shaft elongation of organ-cultured hair follicles, assay #2 (culture HF 441)
Experimental: as §3, §4, §5, §2

Substance: Thymosin beta-4 [TB4]
- Proportion in catagen compared to control (in words) ([1]; 100 ng, Assay #1 and #3): higher proportion of cells in catagen compared to control
- Proportion in the stage of anagen compared with controls (in words) ([1]; 1000 ng/mL, after nine days): consistently more cells in the stage of anagen
- Mean relative darkening of the groups (measured by image J), Mean ([2]; 100 ng/mL): 101.04
- Mean relative darkening of the groups (measured by image J), Mean ([2]; 1000 ng/mL): 85.52
- Influence on HF melanogenesis (in words) ([2]; quantitative Masson-Fontana histochemistry): did not influence HF melanogenesis
- Mean elongation in % compared to day 1 ([3]; 100 ng/mL, Day 0): 0.00%
- Mean elongation in % compared to day 1 ([3]; 100 ng/mL, Day 1): 12.26%
- Mean elongation in % compared to day 1 ([3]; 100 ng/mL, Day 3): 35.49%
- Mean elongation in % compared to day 1 ([3]; 100 ng/mL, Day 5): 49.79%
- Mean elongation in % compared to day 1 ([3]; 100 ng/mL, Day 7): 61.36%
- Mean elongation in % compared to day 1 ([3]; 100 ng/mL, Day 9): 74.11%
- Hair growth compared with control (in words) ([3]; 100 ng/mL): significant lack of hair growth
- Mean elongation in % compared to day 1 ([3]; 1000 ng/mL, Day 0): 0.00%
- Mean elongation in % compared to day 1 ([3]; 1000 ng/mL, Day 1): 14.20%
- Mean elongation in % compared to day 1 ([3]; 1000 ng/mL, Day 3): 39.31%
- Mean elongation in % compared to day 1 ([3]; 1000 ng/mL, Day 5): 66.20%
- Mean elongation in % compared to day 1 ([3]; 1000 ng/mL, Day 7): 90.23%
- Mean elongation in % compared to day 1 ([3]; 1000 ng/mL, Day 9): 103.17%
- Mean elongation in % compared to day 0 ([4]; 100 ng/mL, Day 3): 19.35%
- Mean elongation in % compared to day 0 ([4]; 100 ng/mL, Day 5): 31.66%
- Mean elongation in % compared to day 0 ([4]; 100 ng/mL, Day 7): 41.77%
- Mean elongation in % compared to day 0 ([4]; 100 ng/mL, Day 9): 49.94%
- Mean elongation in % compared to day 0 ([4]; 100 ng/mL, Day O): 0%
- Mean elongation in % compared to day 0 ([4]; 1000 ng/mL, Day 3): 21.68%
- Mean elongation in % compared to day 0 ([4]; 1000 ng/mL, Day 5): 32.59%
- Mean elongation in % compared to day 0 ([4]; 1000 ng/mL, Day 7): 37.48%
- Mean elongation in % compared to day 0 ([4]; 1000 ng/mL, Day 9): 43.30%
- Mean elongation in % compared to day 0 ([4]; 1000 ng/mL, Day O): 0%

Substance: thymulin
- Proportion of HFs in anagen compared with control groups (in words) ([1]; 10 pg and 100 pg/mL, three assays, 9-day treatment): consistently a higher proportion of HFs in anagen than control groups
- Fontana Masson staining (melanin) compared with control group (in words) ([2]; 10 pg/mL): significantly more staining
- Mean relative darkening of the groups (measured by image J), Mean ([2]; 10 pg/mL): 75.73
- Mean relative darkening of the groups (measured by image J), Mean ([2]; 100 pg/mL): 90.48
- Mean elongation with thymulin in percent compared to day 0 ([3]; 10 pg/mL, Day 0): 0%
- Mean elongation with thymulin in percent compared to day 0 ([3]; 10 pg/mL, Day 1): 13.19%
- Mean elongation with thymulin in percent compared to day 0 ([3]; 10 pg/mL, Day 3): 37.58%
- Mean elongation with thymulin in percent compared to day 0 ([3]; 10 pg/mL, Day 5): 64.05%
- Mean elongation with thymulin in percent compared to day 0 ([3]; 10 pg/mL, Day 7): 75.10%
- Mean elongation with thymulin in percent compared to day 0 ([3]; 10 pg/mL, Day 9): 90.98%
- Mean elongation with thymulin in percent compared to day 0 ([3]; 100 pg/mL, Day 0): 0%
- Mean elongation with thymulin in percent compared to day 0 ([3]; 100 pg/mL, Day 1): 11.33%
- Mean elongation with thymulin in percent compared to day 0 ([3]; 100 pg/mL, Day 3): 31.50%
- Mean elongation with thymulin in percent compared to day 0 ([3]; 100 pg/mL, Day 5): 53.75%
- Mean elongation with thymulin in percent compared to day 0 ([3]; 100 pg/mL, Day 7): 68.76%
- Mean elongation with thymulin in percent compared to day 0 ([3]; 100 pg/mL, Day 9): 83.13%
- Hair growth compared with control (in words) ([3]; 100 pg/mL): significant lack of hair growth
- Mean elongation in % compared to day 0 ([4]; 10 pg/mL, Day 3): 20.86%
- Mean elongation in % compared to day 0 ([4]; 10 pg/mL, Day 5): 34.97%
- Mean elongation in % compared to day 0 ([4]; 10 pg/mL, Day 7): 43.26%
- Mean elongation in % compared to day 0 ([4]; 10 pg/mL, Day 9): 58.90%
- Mean elongation in % compared to day 0 ([4]; 10 pg/mL, Day O): 0%
